Common to all, as to assay: radiometric kinase profiling (33 PanQinase)
Common to all, as to assay type: biochemical

One assay has as its target T1, GRK6 (Homo sapiens, UniProt P43250).
T1 construct: purchased ProQinase (33PanQinase Activity Assay)
The settings on record: read-out: Inhibitory effect (%) GRK6. In short, it runs like this:
(§1)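 Enzyme/substrate mixes were incubated with [γ-33P]-ATP and compound (added as a 0.1 μM solution in 10% DMSO) at 30 °C for 60 min, then stopped with H3PO4 and washed with NaCl. 33P incorporation was scintillation-counted, and residual activity (%) was normalized to untreated control and background.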

For a further assay, the target named is T2, KDR (Homo sapiens, UniProt P35968).
T2 construct: purchased ProQinase (33PanQinase Activity Assay)
T2 sequence (P35968 20-1356): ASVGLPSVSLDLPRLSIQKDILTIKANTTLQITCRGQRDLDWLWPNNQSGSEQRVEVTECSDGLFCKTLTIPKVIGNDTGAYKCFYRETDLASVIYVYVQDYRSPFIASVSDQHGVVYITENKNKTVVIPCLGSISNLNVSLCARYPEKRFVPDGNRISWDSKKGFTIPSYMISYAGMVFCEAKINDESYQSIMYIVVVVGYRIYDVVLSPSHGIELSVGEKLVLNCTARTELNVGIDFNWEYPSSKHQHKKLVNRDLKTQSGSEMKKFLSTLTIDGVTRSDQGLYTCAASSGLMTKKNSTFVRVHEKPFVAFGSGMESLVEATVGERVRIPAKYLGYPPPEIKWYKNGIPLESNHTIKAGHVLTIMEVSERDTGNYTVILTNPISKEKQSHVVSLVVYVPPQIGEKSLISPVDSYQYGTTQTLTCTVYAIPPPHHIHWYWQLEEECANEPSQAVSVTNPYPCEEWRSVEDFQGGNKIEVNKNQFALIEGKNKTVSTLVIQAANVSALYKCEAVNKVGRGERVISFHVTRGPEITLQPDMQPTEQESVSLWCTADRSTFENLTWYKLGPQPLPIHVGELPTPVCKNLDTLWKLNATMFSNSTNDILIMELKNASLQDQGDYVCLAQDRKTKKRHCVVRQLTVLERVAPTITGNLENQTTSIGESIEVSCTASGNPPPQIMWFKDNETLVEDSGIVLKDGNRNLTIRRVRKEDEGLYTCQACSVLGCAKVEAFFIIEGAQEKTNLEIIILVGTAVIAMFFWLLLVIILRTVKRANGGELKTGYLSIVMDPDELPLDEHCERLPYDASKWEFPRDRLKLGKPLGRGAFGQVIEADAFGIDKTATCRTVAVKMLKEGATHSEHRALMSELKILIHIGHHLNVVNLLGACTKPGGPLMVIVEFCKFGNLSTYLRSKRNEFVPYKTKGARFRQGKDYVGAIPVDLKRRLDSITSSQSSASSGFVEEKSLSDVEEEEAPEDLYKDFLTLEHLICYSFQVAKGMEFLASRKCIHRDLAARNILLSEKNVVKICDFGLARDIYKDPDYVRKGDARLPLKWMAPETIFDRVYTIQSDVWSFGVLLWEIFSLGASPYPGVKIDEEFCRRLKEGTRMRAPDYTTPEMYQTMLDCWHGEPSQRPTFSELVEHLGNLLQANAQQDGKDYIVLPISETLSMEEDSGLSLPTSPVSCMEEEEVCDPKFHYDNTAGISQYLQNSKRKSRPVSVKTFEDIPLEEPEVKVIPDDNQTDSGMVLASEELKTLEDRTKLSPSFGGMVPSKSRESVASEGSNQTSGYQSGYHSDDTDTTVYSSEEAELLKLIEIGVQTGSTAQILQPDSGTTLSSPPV
The settings on record: read-out: Inhibitory effect (%) KDR. In short, it runs like this: as §1

The target of a further assay is T3, SRPK1 (Homo sapiens, UniProt Q96SB4).
T3 construct: purchased ProQinase (33PanQinase Activity Assay)
T3 sequence (Q96SB4 whole entry): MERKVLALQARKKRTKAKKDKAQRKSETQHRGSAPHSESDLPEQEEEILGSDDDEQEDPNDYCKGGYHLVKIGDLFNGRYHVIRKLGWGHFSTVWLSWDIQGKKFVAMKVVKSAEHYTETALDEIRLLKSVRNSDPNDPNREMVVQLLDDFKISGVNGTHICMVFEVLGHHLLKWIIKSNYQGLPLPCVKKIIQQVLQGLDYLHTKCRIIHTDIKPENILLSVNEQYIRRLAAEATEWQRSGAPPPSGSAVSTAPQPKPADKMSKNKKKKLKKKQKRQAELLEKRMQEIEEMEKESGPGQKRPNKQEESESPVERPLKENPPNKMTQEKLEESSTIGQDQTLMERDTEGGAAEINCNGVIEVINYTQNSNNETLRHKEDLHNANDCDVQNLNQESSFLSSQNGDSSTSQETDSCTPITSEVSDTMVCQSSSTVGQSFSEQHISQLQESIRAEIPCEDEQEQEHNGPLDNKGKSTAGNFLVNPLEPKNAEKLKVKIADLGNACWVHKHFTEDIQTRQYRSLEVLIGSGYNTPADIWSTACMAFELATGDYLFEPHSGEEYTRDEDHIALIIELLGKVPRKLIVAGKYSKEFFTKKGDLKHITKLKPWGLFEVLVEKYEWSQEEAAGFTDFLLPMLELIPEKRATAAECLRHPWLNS
The settings on record: read-out: Inhibitory effect (%) SRPK1. In short, it runs like this: as §1

A further assay deals with T4, CHEK2 (Homo sapiens, UniProt O96017).
T4 construct: purchased Proqinase, Germany
T4 sequence (O96017 whole entry): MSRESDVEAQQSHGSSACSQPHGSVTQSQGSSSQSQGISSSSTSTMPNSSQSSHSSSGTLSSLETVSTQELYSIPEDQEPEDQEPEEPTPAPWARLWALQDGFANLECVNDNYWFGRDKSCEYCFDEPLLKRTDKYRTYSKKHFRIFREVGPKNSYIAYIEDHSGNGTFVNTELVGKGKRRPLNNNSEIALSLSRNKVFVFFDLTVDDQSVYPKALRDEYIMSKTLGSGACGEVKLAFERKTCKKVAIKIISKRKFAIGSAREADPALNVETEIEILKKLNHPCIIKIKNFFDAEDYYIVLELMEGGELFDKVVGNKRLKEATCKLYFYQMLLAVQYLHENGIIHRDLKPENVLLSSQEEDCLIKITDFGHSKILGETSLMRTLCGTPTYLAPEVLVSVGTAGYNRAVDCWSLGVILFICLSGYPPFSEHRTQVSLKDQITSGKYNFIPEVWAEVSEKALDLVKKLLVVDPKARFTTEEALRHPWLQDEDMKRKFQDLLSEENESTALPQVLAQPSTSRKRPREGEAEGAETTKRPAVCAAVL
The settings on record: read-out: Inhibitory effect (%) CHEK2. In short, it runs like this:
as §1

The target of the next assay is T5, CSNK2A1 (Homo sapiens, UniProt P68400).
T5 construct: purchased Proqinase, Germany
T5 sequence (P68400 whole entry): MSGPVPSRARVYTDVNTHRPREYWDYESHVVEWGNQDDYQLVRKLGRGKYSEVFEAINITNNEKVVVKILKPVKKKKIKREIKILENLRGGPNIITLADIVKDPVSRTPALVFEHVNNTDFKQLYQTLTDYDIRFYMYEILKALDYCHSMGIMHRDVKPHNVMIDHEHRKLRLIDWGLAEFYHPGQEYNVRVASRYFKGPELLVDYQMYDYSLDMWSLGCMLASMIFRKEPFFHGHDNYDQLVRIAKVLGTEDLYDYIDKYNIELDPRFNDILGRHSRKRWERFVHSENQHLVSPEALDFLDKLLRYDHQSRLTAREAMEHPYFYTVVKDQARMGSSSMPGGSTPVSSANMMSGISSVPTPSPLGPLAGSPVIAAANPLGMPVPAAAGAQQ
The settings on record: read-out: Inhibitory effect (%) CSNK2A1. In short, it runs like this: as §1

The target in a further assay is T6, MAP3K8 (Homo sapiens, UniProt P41279).
T6 construct: purchased ProQinase (33PanQinase Activity Assay)
The settings on record: read-out: Inhibitory effect (%) MAP3K8. In short, it runs like this: as §1

In a further assay the target is T7, FYN (Homo sapiens, UniProt P06241).
T7 construct: purchased ProQinase (33PanQinase Activity Assay)
The settings on record: read-out: Inhibitory effect (%) FYN. In short, it runs like this: as §1

A further assay addresses T8, SLK (Homo sapiens, UniProt Q9H2G2).
T8 construct: purchased ProQinase (33PanQinase Activity Assay)
The settings on record: read-out: Inhibitory effect (%) SLK. In short, it runs like this:
as §1

In a further assay the target is T9, MAP3K7 (Homo sapiens, UniProt O43318).
T9 construct: purchased ProQinase (33PanQinase Activity Assay)
T9 sequence (O43318 1-303 limits assumed): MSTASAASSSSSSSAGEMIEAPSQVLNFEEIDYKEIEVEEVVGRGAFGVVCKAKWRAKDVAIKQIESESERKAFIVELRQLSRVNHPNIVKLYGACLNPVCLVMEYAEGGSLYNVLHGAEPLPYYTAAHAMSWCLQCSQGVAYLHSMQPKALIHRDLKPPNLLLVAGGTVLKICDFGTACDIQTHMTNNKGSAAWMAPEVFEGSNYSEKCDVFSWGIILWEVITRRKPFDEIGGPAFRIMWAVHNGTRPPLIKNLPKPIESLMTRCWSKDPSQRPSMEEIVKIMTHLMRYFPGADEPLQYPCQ
The settings on record: read-out: Inhibitory effect (%) MAP3K7. In short, it runs like this:
as §1

A further assay has as its target T10, PTK2 (Homo sapiens, UniProt Q05397).
T10 construct: purchased ProQinase (33PanQinase Activity Assay)
The settings on record: read-out: Inhibitory effect (%) PTK2. In short, it runs like this:
as §1

The next assay has as its target T11, IGF1R (Homo sapiens, UniProt P08069).
T11 construct: purchased ProQinase (33PanQinase Activity Assay)
The settings on record: read-out: Inhibitory effect (%) IGF1R. In short, it runs like this: as §1

The next assay has as its target T12, JAK1 (Homo sapiens, UniProt P23458).
T12 construct: purchased ProQinase (33PanQinase Activity Assay)
The settings on record: read-out: Inhibitory effect (%) JAK1. In short, it runs like this: as §1

The next assay concerns the target T13, KIT (Homo sapiens, UniProt P10721).
T13 construct: purchased ProQinase (33PanQinase Activity Assay)
The settings on record: read-out: Inhibitory effect (%) KIT. In short, it runs like this:
as §1

A further assay has as its target T14, DYRK1A (Homo sapiens, UniProt Q13627).
T14 construct: purchased Proqinase, Germany
The settings on record: read-out: Inhibitory effect (%) DYRK1A. In short, it runs like this:
as §1

For another assay, the target named is T15, CSNK1A1 (Homo sapiens, UniProt P48729).
T15 construct: purchased Proqinase, Germany
The settings on record: read-out: Inhibitory effect (%) CSNK1A1. In short, it runs like this: as §1

The next assay deals with T16, NEK6 (Homo sapiens, UniProt Q9HC98).
T16 construct: purchased ProQinase (33PanQinase Activity Assay)
The settings on record: read-out: Inhibitory effect (%) NEK6. In short, it runs like this:
as §1

T13 sequence (P10721 26-976): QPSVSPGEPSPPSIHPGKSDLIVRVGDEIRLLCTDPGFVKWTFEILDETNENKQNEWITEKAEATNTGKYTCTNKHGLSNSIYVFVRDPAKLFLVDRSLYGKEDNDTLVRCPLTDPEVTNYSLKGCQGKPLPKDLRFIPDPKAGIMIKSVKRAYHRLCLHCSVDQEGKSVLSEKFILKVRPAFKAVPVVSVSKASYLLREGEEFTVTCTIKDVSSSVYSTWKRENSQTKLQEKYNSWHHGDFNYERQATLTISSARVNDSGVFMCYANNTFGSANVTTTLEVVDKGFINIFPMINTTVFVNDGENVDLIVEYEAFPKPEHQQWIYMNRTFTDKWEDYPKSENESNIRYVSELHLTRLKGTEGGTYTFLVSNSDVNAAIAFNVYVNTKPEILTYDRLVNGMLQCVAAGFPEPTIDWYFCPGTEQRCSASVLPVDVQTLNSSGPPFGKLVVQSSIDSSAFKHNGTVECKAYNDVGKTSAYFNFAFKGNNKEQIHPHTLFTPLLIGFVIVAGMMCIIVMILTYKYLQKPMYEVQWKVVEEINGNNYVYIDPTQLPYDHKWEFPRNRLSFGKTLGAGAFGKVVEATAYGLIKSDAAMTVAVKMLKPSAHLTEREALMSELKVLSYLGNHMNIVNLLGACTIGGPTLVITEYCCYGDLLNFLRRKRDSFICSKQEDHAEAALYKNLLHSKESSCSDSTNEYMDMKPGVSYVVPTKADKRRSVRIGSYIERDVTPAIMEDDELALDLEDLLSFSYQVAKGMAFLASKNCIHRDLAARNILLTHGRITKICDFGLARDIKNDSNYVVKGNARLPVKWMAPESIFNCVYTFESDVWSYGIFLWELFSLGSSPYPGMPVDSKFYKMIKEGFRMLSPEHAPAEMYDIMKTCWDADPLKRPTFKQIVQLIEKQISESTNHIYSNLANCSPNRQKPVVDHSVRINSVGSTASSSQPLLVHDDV
T10 sequence (Q05397 whole entry): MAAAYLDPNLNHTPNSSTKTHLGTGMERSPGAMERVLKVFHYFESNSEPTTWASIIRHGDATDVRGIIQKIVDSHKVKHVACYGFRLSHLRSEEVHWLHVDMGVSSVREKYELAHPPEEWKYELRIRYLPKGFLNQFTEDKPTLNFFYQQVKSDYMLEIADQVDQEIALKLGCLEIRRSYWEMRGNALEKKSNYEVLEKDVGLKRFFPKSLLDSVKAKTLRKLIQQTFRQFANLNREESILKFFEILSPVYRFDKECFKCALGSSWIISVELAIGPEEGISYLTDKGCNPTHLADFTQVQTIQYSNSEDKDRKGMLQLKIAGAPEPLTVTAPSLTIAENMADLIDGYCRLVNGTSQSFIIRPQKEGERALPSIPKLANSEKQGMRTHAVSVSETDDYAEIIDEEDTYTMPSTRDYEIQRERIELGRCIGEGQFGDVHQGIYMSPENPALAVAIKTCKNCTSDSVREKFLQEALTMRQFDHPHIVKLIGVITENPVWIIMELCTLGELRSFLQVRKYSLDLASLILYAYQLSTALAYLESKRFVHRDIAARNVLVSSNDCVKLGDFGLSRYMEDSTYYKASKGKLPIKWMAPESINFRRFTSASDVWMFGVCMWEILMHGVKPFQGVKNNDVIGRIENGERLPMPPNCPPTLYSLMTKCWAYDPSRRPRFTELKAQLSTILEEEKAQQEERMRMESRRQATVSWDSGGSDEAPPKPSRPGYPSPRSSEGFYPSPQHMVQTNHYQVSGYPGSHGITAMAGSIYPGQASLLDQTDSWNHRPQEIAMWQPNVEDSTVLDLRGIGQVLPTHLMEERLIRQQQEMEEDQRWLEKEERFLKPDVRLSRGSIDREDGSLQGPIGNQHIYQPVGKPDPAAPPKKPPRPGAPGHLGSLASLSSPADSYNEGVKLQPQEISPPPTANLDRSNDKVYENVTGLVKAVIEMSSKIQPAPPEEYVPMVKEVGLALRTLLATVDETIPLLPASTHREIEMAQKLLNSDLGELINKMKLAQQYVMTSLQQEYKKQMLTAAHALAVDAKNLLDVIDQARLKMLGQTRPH

On to `c1ccc2c(-c3cnn4cc(-c5ccc(N6CCNCC6)cc5)cnc34)ccnc2c1` [LDN-193189, reference compound], for which the inhibition at 0.1 µM was -1.81% at GRK6; -6.35% at KDR; -16.5% on SRPK1; -0.88% on CHEK2; -10.9% at CSNK2A1; -10.3% on MAP3K8. The inhibition at 0.1 µM on FYN is 28.1%; at SLK it was -18.4%; at MAP3K7, 7.07%; at PTK2, 4.03%; at IGF1R, 8.78%; on JAK1, -10.9%. Also, the inhibition at 0.1 µM on KIT was -20.3%; on DYRK1A it was -15.6%; at CSNK1A1, -3.63%; on NEK6, 7.05%.
For `CN1CCc2cccc(c2)Nc2nccc(n2)N2CCCc3cc(ccc32)C1` [OD16], the inhibition at 0.1 µM on GRK6 is -2.14%; at KDR, 0.8%; at SRPK1, -24.9%; on CHEK2, 7.12%; at CSNK2A1, -9.27%; on MAP3K8, -16.9%. In addition, the inhibition at 0.1 µM on FYN was -31%; on SLK, 26.5%; on MAP3K7 it was -6.98%; at PTK2, 17.1%; at IGF1R, -39.5%; on JAK1, 23.1%. The inhibition at 0.1 µM at KIT is 33%; at DYRK1A it was -6.26%; on CSNK1A1, 0.99%; on NEK6 it was -21.1%.
Regarding `CN1CCC(=O)NCCNc2ccn3ncc(c3n2)-c2cccc(c2)C1` [OD29], the inhibition at 0.1 µM at GRK6 was 0.04%; at KDR, 37.6%; on SRPK1, 21.5%; at CHEK2, -0.87%; on CSNK2A1 it was -1.02%; at MAP3K8, -5.03%. The inhibition at 0.1 µM at FYN was 24.6%; at SLK it was 27.7%; on MAP3K7, 11.4%; on PTK2, -0.22%; on IGF1R, 13.9%; on JAK1, -3.74%. Further, the inhibition at 0.1 µM at KIT was 7.49%; at DYRK1A, -7.58%; at CSNK1A1, -2.21%; on NEK6, 4.01%.

For the origin of these results see paper PMC8231556, “Inhibiting Endothelial Cell Function in Normal and Tumor Angiogenesis Using BMP Type I Receptor Macrocyclic Kinase Inhibitors” (Cancers, 2021).
